The record followed here is patent publication US5702934A, “Processes for producing an enzyme” (priority 1993, dated 1997).

The target in experiment [1] is pro-trypsin-like Fusarium oxysporum protease (recombinant proenzyme form of the trypsin-like F. oxysporum protease) (Fusarium oxysporum DSM 2672).
In experiment [2] the target is T1, Fusarium oxysporum p45 proteolytic enzyme (p45 maturase, metalloprotease), SEQ ID NO:6 (Fusarium oxysporum, UniProt M1UZ70).
T1 construct: apparently native maturase from F. oxysporum; recombinant p45 also made in A. oryzae
The experiment is classed as biochemical. As to the method:
(§1) The tryptic activity is measured in microtiter plates; 100 μl samples are mixed with 100 μl of substrate (Stock: 87 mg/ml L-BAPNA (Sigma) in DMSO, diluted 50-fold in buffer) and the absorption at 405 nm is measured using a Thermomax microplate reader from Molecular Devices.
(§2) Metalloproteases contain a catalytic zinc metal center which participates in the hydrolysis of the peptide backbone. The active zinc center differentiates these proteases from calpains whose activities are dependent upon the presence of calcium. Confirmation of a protease as a metallo-protease is loss of proteolytic activity accomplished by removal of the zinc center with 1,10-phenanthroline (1 mM) followed by titration with Zn^2+ (0.1-100μM) to restore full activity.

Experiment [3] has as its target T2, trypsin-like Fusarium oxysporum protease (F. oxysporum DSM 2672), SEQ ID NO: 2 (Fusarium oxysporum, UniProt P35049).
T2 construct: made in house; host or cells: Aspergillus oryzae IFO 4177 transformed with pSX183
The experiment can be described thus: Tryptic activity (L-BAPNA) of the trypsin-like protease with or without 1,10-phenanthroline. The experiment is classed as biochemical. How it is done: as §1, §2

Read-outs that look alike come from different tables or passages of the source.

As for “p45 proteolytic enzyme (maturase) from Fusarium oxysporum”, in experiment [1], the Tryptic Activity (Δ Abs/min × 10^-4) released from the proenzyme, L-BAPNA assay was 0.0054 Δ Abs/min.
Consider `O=C(O)CN(CCN(CC(=O)O)CC(=O)O)CC(=O)O` [EDTA], for which, in experiment [2] (EDTA 1 mM substituted for 1,10-phenanthroline), the “Maturase activity upon addition of inhibitor (in words)” value was “Analogous results”.
For the molecule `c1cnc2c(c1)ccc1cccnc12` [1,10-phenanthroline], the “inhibition of the trypsin-like protease (in words)” value in experiment [3] (1,10-phenanthroline 1 mM) is “not inhibited”. Further, the “Tryptic Activity (Δ Abs/min × 10^-4)” value in experiment [3] (1,10-phenanthroline 1 mM, no Zn2+, without inhibitor 34.0) is given as 33.8 Δ Abs/min × 10^-4. Further, in experiment [3] (1,10-phenanthroline (1 mM), without inhibitor 34.0×10^-4), the “tryptic activity with inhibitor addition” value was 33.8×10^-4 ΔAbs/min. Further, in experiment [2] (1 mM 1,10-phenanthroline), the “Maturase activity upon addition of inhibitor (in words)” value is on record as “halted”. For the same molecule, in experiment [2] (1,10-phenanthroline 1 mM, no Zn2+, without inhibitor 54.0, proenzyme alone 1.26), the “Tryptic Activity (Δ Abs/min × 10^-4) released by p45 Maturase from pro-trypsin-like F. oxysporum protease” value is 2.9 Δ Abs/min × 10^-4.
